# Data reported in PMC11996864, “A small-molecule inhibitor of BCL10-MALT1 interaction abrogates progression of diffuse large B cell lymphoma” (The Journal of Clinical Investigation, 2025).
# pIC50: −log10 of the molar value. Where “and” joins values, the source holds several entries; their conditions need not be identical. Identical values can stand only once. Entries after “also recorded” stand apart in the source; their conditions may differ.
# Tests used:
# [1] = test system: TMD8 cells; assay: Apoptosis, annexin V/SYTOX Blue flow cytometry; assay type: cell-based, human
# Protocol: (§1) Cell proliferation, viability, and apoptosis assays. […]
# The percentages of cells in early and late apoptosis were combined for
# quantification. For CellTrace Violet, CellTiter-glo, and Annexin V apoptosis assays, cell were
# cultured in media with 50% of the usual serum. […]
# [2] = test system: all CYP enzymes tested (CYP1A2, CYP2C9, CYP2C19, CYP2D6, CYP3A4); assay: Reversible CYP inhibition, all enzymes tested; assay type: in vitro ADME; conditions: both sexes, human, pooled human liver microsomes; read-out: IC50 against all CYP enzymes tested
# Protocol: Pharmacokinetic and cytochrome P450 inhibition studies. Studies were performed with the assistance of Touchstone Biosciences (Plymouth Meeting, Pennsylvania). […]
# For reversible CYP […]
# inhibition studies, different concentrations of M1i-124 were added to 0.2 mg/ml pooled, mixed-gender human liver microsomes (HLM). Each CYP450 isoform-specific probe substrate (CYP1A2, CYP2C9, CYP2C19, CYP2D6, and CYP3A4) was incubated individually with HLM and M1i-124 or corresponding positive control inhibitor (Phenacetin, Tolbutamaide, S-Mephenytoin, Dextromethorphan, Midazolam, and Testosterone). Samples were analyzed for metabolites of the probe substrates by LC-MS/MS at each of the test compound concentrations. A decrease in the formation of the metabolites compared to vehicle control was used to calculate the […]
# [3] = test system: TMD8 cells; assay: CellTiter-Glo ATP viability; assay type: cell-based, human
# [4] = test system: OCI-Ly3 cells; assay: CellTiter-Glo ATP viability; assay type: cell-based, human
# Protocol: as §1
# Fluorescent Intensity (MFI) was analyzed by FlowJo (version 10.8.0, BD). CellTiter-glo luminescence assay (Promega, Cat# G7570) was used to quantify ATP levels as a surrogate marker of metabolic viability in DLBCL cells treated with compounds for 6-8 days. […]
# The percentages of cells in early and late apoptosis were combined for quantification. For CellTrace Violet, CellTiter-glo, and Annexin V apoptosis assays, cell were cultured in media with 50% of the usual serum. […]
# [5] = test system: TMD8 tumor xenografts; assay: NF-κB target gene mRNA in TMD8 tumor xenografts, qRT-PCR; assay type: in vivo, mouse
# Protocol: Total RNA extraction from the TMD8 tumor xenografts was performed using 80% TRIzol Reagent (Fisher Scientific, Cat# 15596026) and 20% Chloroform for tissue solubilization. After centrifugation, the supernatant was mixed with equal volume of 70% ETOH followed by RNA isolation using the RNeasy Plus Mini
# Kit. RNA was transcribed into cDNA using High-Capacity cDNA Reverse Transcription Kit (Applied Biosystems, Cat# 4368814) according to manufacturer’s instructions. RT-PCR was performed using TaqMan Universal PCR Master Mix (Applied Biosystems, Cat# 4304437) and run on a StepOnePlus Real-Time PCR machine (Applied Biosystems). The following probes from ThermoFisher Scientific were used for qRT-PCR: IL2 TaqMan probe Hs00174114, IL6 TaqMan
# [6] = 24-hour time point, result in words
smiles,measurement,setting,value
O=S(=O)(NCc1ccc2c(c1)OCO2)c1ccc(Cc2ccc(S(=O)(=O)NCc3ccc4c(c3)OCO4)cc2)cc1 [M1i-124],% Apoptotic cells,"[1]; TMD8, 1 μM, 6 days",84.2% and 72.1% and 76.6% and 77.4% and 72.4% and 73.5%
same,Annexin (% positivity),"[1]; TMD8, individual replicates",78.2% and 93.8% and 81.35%
same,apoptosis of TMD8 cells,[1]; result in words,induced significant apoptosis; also recorded: selectively induced apoptosis
same,pIC50,[2],< 5.00
same,Percent cell viability (ATP luminescence),"[3]; TMD8, M1i-124 (µM) 0.02",98.5399% and 121.237% and 91.8987%
same,Percent cell viability (ATP luminescence),"[3]; TMD8, M1i-124 (µM) 0.05",110.558% and 93.9485% and 106.792%
same,Percent cell viability (ATP luminescence),"[3]; TMD8, M1i-124 (µM) 0.1",120.312% and 100.889%
same,Percent cell viability (ATP luminescence),"[3]; TMD8, M1i-124 (µM) 0.2",81.1675% and 99.7783% and 71.7208%
same,pIC50,"[4]; Homo sapiens, OCI-Ly3 cells, read-out: 50% cytotoxic concentration",~6.30
same,Percent viability (ATP level),"[4]; OCI-Ly3, M1i-124 (µM) 0.02",93.0259% and 81.697% and 95.3842% and 87.3232%
same,Percent viability (ATP level),"[4]; OCI-Ly3, M1i-124 (µM) 0.05",107.435% and 78.839% and 101.939% and 104.596%
same,Percent viability (ATP level),"[4]; OCI-Ly3, M1i-124 (µM) 0.1",97.8481% and 79.4097% and 92.5817% and 82.7797%
same,Percent viability (ATP level),"[4]; OCI-Ly3, M1i-124 (µM) 0.2",93.5879% and 72.4634% and 88.6927% and 76.6947%
same,Percent viability (ATP level),"[4]; OCI-Ly3, M1i-124 (µM) 5",38.3426% and 24.1881% and 19.3497% and 28.4648%
same,viability of OCI-Ly3 cells,[4]; result in words,dose-dependent decrease in viability
same,IRF4 mRNA level in tumors,[5]; [6],no effect
same,NFKBID mRNA level in tumors,[5]; [6],no effect
same,NFKBIZ mRNA level in tumors,[5]; [6],did reduce
same,TNFA mRNA level in tumors,[5]; [6],did reduce
same,IL10 mRNA levels in tumors,"[5]; 24 hours after last dose, result in words",not affected
same,IL6 mRNA level in tumors,"[5]; 24 hours after last dose, vs DMSO, result in words",significant decrease
same,Gene expression by RT-PCR (normalized),[5]; NFKBID,0.81 and 0.72 and 0.56 and 0.88 and 1.03 and 0.82 and 0.76 and 0.92
